Data as given in US4623641A, “Method of treating ulcers and erosions in the gastrointestinal system using PGI2 -methyl ester-beta cyclodextrin inclusion complexes” (Chinoin Gyogyszer es Vegyeszeti Termekek Gyara R.T., priority 1985, dated 1986).

What was measured:
stress ulcer = assay: Stress ulcer test (immobilized rats, ulcer index); format: in vivo, female wistar rats; conditions: for U.I. (delta %): control = 100
Method: For the following tests 200-250 g female wistar rats were fasted for 24 hours before the experiment. Water was given ad libium. A. STRESS ULCER TEST The rats were immobilized on their backs for 24 hours. After immobilization the animals were killed, and their stomachs were prepared for ulcer analysis. The gastric cytoprotective effect of PCCD was tested by administering it in the following way: Case A: At 0, 6th, 12th and 18th hour after the immobilization. Administrations were carried out both ip and per os. In both cases the animals were killed and their stomachs prepared for ulcer analysis. In each experiment the ulcer index was calculated. In the calculation of the U.I., each mm^2 of ulcer or erosion is 1 point. Bleeding results in an additional 5 points. Perforation means an additional 10 points. The number of animals is (n=20) in each group. Mean (%)±S.E.M. is calculated. Statistical analysis is done according to the Student's T-Test. Significance level, p is less than 0.05.

[1] = in vivo; cited from earlier work
[2] = system: gastric lesions on the corpus mucosa; assay: Gastric cytoprotective test (ethanol-induced gastric lesions, A. Robert); format: in vivo, rats; conditions: for ED50: Rattus norvegicus, PCCD values relate to active ingredient
Method: For the following tests 200-250 g female wistar rats were fasted for 24 hours before the experiment. Water was given ad libium.
C. GASTRIC CYTOPROTECTIVE TEST
The following method according to the abovementioned reference was employed:
The cytoprotective substances were applied before giving ethanol p.o. or subcutaneously. As controls, prostacylin (PGI2) and PGE2 were used.
Evaluation was carried out by killing the animals and then removing their stomachs. The number of gastric lesions was determined in each case. The dose of the cytoprotective compounds giving a 50% inhibiting effect was determined. The number of gastric erosions in the stomachs of animals not treated with a cytoprotective agent was designated 100%.

gastric mucosa = conditions: in vivo; cited from earlier work
[3] = Stability on oral application (acidic pH of the stomach); format: physicochemical; conditions: oral administration
[4] = 100 micrograms/kg i.p., PCCD data calculated for active ingredient

Question: For CN/C(=N/CCSCc1nc[nH]c1C)NC#N [Cimetidine], which “U.I. ± S.E.M.” value (stress ulcer; 10 mg/kg i.p.) is on record?
Answer: 3.0 ± 1.08

Question: And the “U.I. (delta %)” value (stress ulcer; 10 mg/kg i.p.)?
Answer: 38.9%

Question: What about the “U.I. ± S.E.M.” value (stress ulcer; 10 mg/kg p.o.) of the same compound?
Answer: 2.82 ± 1.36

Question: What about the “U.I. (delta %)” value (stress ulcer; 10 mg/kg p.o.) of the same compound?
Answer: 36.7%

Question: Which side effects [1] does the source give for CCCCC[C@H](O)/C=C/[C@H]1[C@H](O)CC(=O)[C@@H]1C/C=C\CCCC(=O)O [PGE2] here?
Answer: diarrhogen side effects

Question: And the ED50 ([2]; po, orally)?
Answer: 0.03 mg/kg

Question: What about the ED50 ([2]; sc, subcutaneously) of the same compound?
Answer: 0.1 mg/kg

Question: And the “cytoprotective effect compared with PGI2” value ([2]; oral application)?
Answer: more effective

Question: What about the “decreasing the blood loss of the gastric mucosa induced by non-steroidal antiphlogistics” value (gastric mucosa) of the same compound?
Answer: significantly effective

Question: And the “therapy of peptic ulcers” value (gastric mucosa)?
Answer: significantly effective

Question: For OC[C@H]1O[C@@H]2O[C@H]3[C@H](O)[C@@H](O)[C@@H](O[C@H]4[C@H](O)[C@@H](O)[C@@H](O[C@H]5[C@H](O)[C@@H](O)[C@@H](O[C@H]6[C@H](O)[C@@H](O)[C@@H](O[C@H]7[C@H](O)[C@@H](O)[C@@H](O[C@H]8[C@H](O)[C@@H](O)[C@@H](O[C@H]1[C@H](O)[C@H]2O)O[C@@H]8CO)O[C@@H]7CO)O[C@@H]6CO)O[C@@H]5CO)O[C@@H]4CO)O[C@@H]3CO [Beta-cyclodextrin], which “U.I. ± S.E.M.” value (stress ulcer; 5 mg/kg i.p.) is on record?
Answer: 6.8 ± 2.15

Question: And the “U.I. (delta %)” value (stress ulcer; 5 mg/kg i.p.)?
Answer: 77.9%

Question: With COc1ccc2c(c1)c(CC(=O)O)c(C)n2C(=O)c1ccc(Cl)cc1 [indomethacin] as the compound, how does the side effects [1] read?
Answer: ulcerogenic side effects

Question: Which “stability compared with PGE2” value [3] does the source give for CCCCC[C@H](O)/C=C/[C@@H]1[C@H]2C/C(=C/CCCC(=O)O)O[C@H]2C[C@H]1O [PGI2, prostacyclin] here?
Answer: more unstable than is PGE2

Question: What about the “U.I. ± S.E.M.” value (stress ulcer; [4]) of the same compound?
Answer: 5.4 ± 1.54

Question: And the “U.I. (delta %)” value (stress ulcer; [4])?
Answer: 70.0%

Question: And the ED50 ([2]; po, orally)?
Answer: 1.8 mg/kg

Question: What about the ED50 ([2]; sc, subcutaneously) of the same compound?
Answer: 0.04 mg/kg

Question: And the “cytoprotective effect compared with PGE2” value ([2]; administered subcutaneously)?
Answer: stronger cytoprotective effect than PGE2
